Reference: patent publication US9562053B2, “Benzo-fused heterocyclic derivatives useful as agonists of GPR120” (Janssen Pharmaceutica NV, priority 2013, dated 2017)

Tests used:
Assay type in all cases: cell-based
Human GPR120 short form [1] = target: T1, Human GPR120 short form (Homo sapiens, UniProt Q5NUL3); experiment: Human GPR120 in Calcium Flux Assay, Procedure Calcium A (2500 cells/well)
T1 construct: expressed in transfected cells
T1 sequence (Q5NUL3 1-361): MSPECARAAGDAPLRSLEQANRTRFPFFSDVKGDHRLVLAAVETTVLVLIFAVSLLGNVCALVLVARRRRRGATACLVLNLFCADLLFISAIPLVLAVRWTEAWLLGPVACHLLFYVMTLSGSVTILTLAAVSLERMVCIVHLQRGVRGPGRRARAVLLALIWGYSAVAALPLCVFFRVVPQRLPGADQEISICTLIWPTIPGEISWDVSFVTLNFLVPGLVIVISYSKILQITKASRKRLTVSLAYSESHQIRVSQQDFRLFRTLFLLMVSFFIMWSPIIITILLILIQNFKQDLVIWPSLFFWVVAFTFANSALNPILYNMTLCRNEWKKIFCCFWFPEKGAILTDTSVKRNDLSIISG
From the text: (§1) This in vitro assay serves to assess test compound agonist activity against the short splice variant (SVS with Accession number NM_001195755.1 confirmed by sequencing data) of the GPR120 receptor. The Human Short splice variant #2 (NM_001195755.1) is missing an in-frame coding exon compared to variant 1 (the Human Long splice variant NM_181745.3), resulting in a shorter isoform (GPR120-S) lacking a 16 aa protein segment compared to isoform GPR120-L. The assay platform utilizes HEK-293 cells stably transfected to express the Human GPR120 short form. These cells are first loaded with the Ca^+2 sensitive dye, Fluo-4 NW. Upon stimulation, intracellular released Ca^+2 can bind to the dye and alter its fluorescence intensity. This increase in fluorescence signal, and thus the flux in intracellular [Ca^+2], is detected and quantitated by fluorescence imaging using a FLIPR reader. The effect of the agonist is measured as a function of concentration and used to calculate an EC50 based upon a response curve.
In this procedure 2500 cells/well were employed.
(§2) A Human GPR120 clone (Genbank accession number NM_001195755.1) was placed into the pcDNA3.1 mammalian expression vector carrying the neomycin resistance gene. A stable mammalian cell was generated by placing the above clone into a HEK293 background. Clonal cells responding to long chain fatty acids had expression levels of GPR120 confirmed by RT-qPCR. Human HEK-GPR120 cells were cultured in Dulbecco's Modified Eagle's Medium (DMEM)/F12 medium supplemented with 10% fetal bovine serum (FBS), 1% L-Glutamine and 1% penicillin/streptomycin and 0.5 mg/ml G-418. Cells were split 2 times a week to keep the cells in the log-phase growth.
(§3) In preparation for the assay, HEK cells stably transfected with Human GPR120 (2.5K cells per well in 25 uL growth medium) were seeded into 384-well plates and then incubated overnight (37° C., 5% CO2). The next day, the media was changed to 20 μl assay buffer and the cell starved for 1 h at 37° C. The dye loading solution (2× dye) was prepared using 10 ml assay buffer, 100 μl of 250 mM probenecid, 1 bottle of Component A, and 20 μl of dye in DMSO. Twenty μl of the 2× dye loading buffer was then added to each well. The plates were incubated at 37° C. for 30 min, then at room temperature for an additional 15 minutes, before performing the assay on FLIPR.
(§4) Test compounds were prepared in assay buffer (2 μl of test compound+198 μl assay buffer, final DMSO in assay plate is 0.2%) at the desired concentration, more particularly at 100 μM, 50 μM, 25 μM, 12.5 μM, 6.25 μM, 3.125 μM, 1.562 μM, 0.781 μM, 0.391 μM, 0.195 μM, 0.098 μM, 0.049 μM, 0.024 μM and 0.012 μM.
(§5) The assay was performed on a FLIPR plate reader using the following parameters. Baseline was read for 10 seconds at 1 sec intervals. The program was set to transfer 10 μL of ligand from compound plate to cell plate after baseline reading. Aspiration was executed at: 10 μl/sec speed, 4.6 μl height; Dispensing was executed at: 30 μl/sec speed, 45 μl height. After compound addition, each well was read for 300 sec, with measurements collected at 1 sec intervals.
(§6) The kinetic data from the FLIPR was based upon a 5 minute window for data collection. The fluorescence of each sample well was used for individual calculations of a normalized RFU value, which was defined as maximum response minus the minimum response. The normalized fluorescence reading (RFU) was calculated as follows: RFU=Fmax−Fmin
(§7) The data were fitted to a sigmoidal dose-response curve with a variable Hill slope (<2) using nonlinear regression with GraphPad Prism 5.0 to calculate the EC50 values. The Fitting Equation was: Y=Bottom+(Top−Bottom)/(1+10^((LogEC50−X)*HillSlope)), where X is the log of the concentration and Y is the response.

[2] = target: T2, short form of the GPR120 receptor (Homo sapiens, UniProt Q5NUL3); experiment: Human GPR120 DiscoveRx PathHunter Beta-Arrestin Assay, Procedure β-arrestin B (5000 cells/well)
T2 construct: host or cells: PathHunter CHO-K1 GPR120S β-Arrestin Cell Line
T2 sequence (Q5NUL3 1-361): T1 sequence (Q5NUL3 1-361)
From the text: The binding of an agonist (medium/long chain fatty acids or small molecule agonists) to the G-protein-coupled receptor GPR120 activates phospholipase C, leading to release of intracellular Ca^+2 through the generation of inositol 1,4,5-trisphosphate (InsP3 or IP3). GPR120 activation can also trigger intracellular signaling via recruitment of β-Arrestin. In the present method, agonist-induced activation of the human GPR120 receptor is monitored through the use of PathHunter CHO-K1 GPR120 β-Arrestin Cell Line engineered by DiscoveRx, as detailed below. The cell lines are designed to co-express both the ProLink/Enzyme Donor (PK)-tagged GPCR and the Enzyme Activator (EA)-tagged β-Arrestin fusion proteins. Upon GPR120 receptor stimulation/activation, the EA-tagged β-Arrestin portion is translocated to the tagged receptor, where the two enzyme fragments are brought within close proximity. Under these conditions, these fragments can interact and form an active Beta-gal enzyme complex through Enzyme Fragment Complementation (EFC). This active Beta-gal complex can enzymatically hydrolyse the substrate to produce a detectable light signal; therefore, activation as a function of agonist concentration can be expressed as an EC50 value to determine relative compound activities. This in vitro assay therefore serves to assess compound agonist activity of the GPR120.
In Procedure β-arrestin B the cells used were PathHunter CHO-K1 GPR120S β-Arrestin Cell Line, expressing the short form of the GPR120 receptor (Accession #NM_181745), with 5000 cells/well.
The selected CHO-K1 GPR120 β-Arrestin cells were cultured in Ham's F12 media supplemented with 10% fetal bovine serum (FBS), 1% Glutamine, 1×p/s, 800 μg/ml G418 and 300 μg/ml Hygromycin B (for selection). Cell stocks were maintained and grown in a sub-confluent state using standard cell culture procedures. The day before the experiment, the cells were harvested with non-enzymatic cell dissociation buffer and re-suspended in complete growth media at the desired concentration. A Corning 384-plate was then seeded with the proper number of cells in a volume of 25 μL, per well. The seeded plates were incubated overnight at 37° C.
On the day of the experiment, the Assay Buffer containing (a) HBSS with Ca^++ and Mg^++, (b) 20 mM HEPES, and (c) 0.1% BSA stabilizer (pH 7.4) was prepared. The growth medium was gently removed from the cell plates and 20 μL of Assay Buffer added to each well. The plate was then incubated at 37° C. for 60 mins. Test compounds were serially diluted in Assay Buffer to desired concentrations (more particularly, to one or more of the following μM concentrations: 25 μM, 12.5 μM, 6.25 μM, 3.125 μM, 1.562 μM, 0.781 μM, 0.391 μM, 0.195 μM, 0.098 μM, 0.049 μM, 0.024 μM, 0.012 μM). Five μl of compound dilution was then added to each well and the plate incubated at 37° C. for 90 mins. The detection reagents were prepared according to the manufacture's instruction. Twelve μL of the detection reagents were added to each well and the plate incubated at room temperature for 60 mins.
The plates were read on an EnVision instrument, using Protocol name: Luminescence, Plate type: 384 Costar, Measurement height: 3 mm, Measurement time: 1 s, Aperture: 384 Plate aperture. The % activity relative to the positive control was calculated using the following equation:
as §7, with “% Activity values” for “data”, “were plotted versus the concentration of test compound and” for “were”, “a” for “a variable”, “slope=1 (fixed value)” for “slope (<2)”

Human GPR120 short form [3] = target: T1, Human GPR120 short form; experiment: Human GPR120 in Calcium Flux Assay, Procedure Calcium B (4200 cells/well)
From the text: as §1
In this procedure 4200 cells/well were employed.
as §2, §3, §4, §5, §6, §7

Compound	EC50 (Human GPR120 short form [1])	EC50 [2]	EC50 (Human GPR120 short form [3])
Cc1c(CCC(=O)O)ccc(OCc2cc(Cl)cc3sc(C(C)(C)C)nc23)c1C [Compound 104, 3-{4-[(2-tert-Butyl-6-chloro-1,3-benzothiazol-4-yl)methoxy]-2,3-dimethylphenyl}propanoic acid]	1880 nM	1550 nM	499 nM
CCc1nc2c(COc3ccc(CCC(=O)O)c(C)c3C)cc(F)cc2s1 [Compound 105, 3-{4-[(2-Ethyl-6-fluoro-1,3-benzothiazol-4-yl)methoxy]-2,3-dimethylphenyl}propanoic acid]	204 nM	402 nM	91 nM
